Changes are numbered by the printed parent chain.
What was measured:
Assay in all cases: substrate-stimulated ATPase assay (colorimetric Pi release)
Type in all cases: biochemical
chABCD1 (chimeric ABCD1) [1] = biological target: T1, chABCD1 (chimeric ABCD1) (Homo sapiens, UniProt P33897, R104A); settings: 5 μM C22:0-CoA, 2 mM ATP, 2 mM MgCl2, LMNG + CHS, pH 7.5, 37 °C
T1 construct: single polypeptide: N-terminal FLAG tag, PMP-4 residues 1-65 replacing human ABCD1 residues 1-63, then human ABCD1 64-745; HEK293F; homodimer; LMNG/CHS for assays, digitonin for cryo-EM; with PMP-4 (peroxisomal membrane protein related, ABCD1 homolog, Caenorhabditis elegans; N-terminal segment fused to the target chain)
T1 sequence (P33897 64-745 R104A): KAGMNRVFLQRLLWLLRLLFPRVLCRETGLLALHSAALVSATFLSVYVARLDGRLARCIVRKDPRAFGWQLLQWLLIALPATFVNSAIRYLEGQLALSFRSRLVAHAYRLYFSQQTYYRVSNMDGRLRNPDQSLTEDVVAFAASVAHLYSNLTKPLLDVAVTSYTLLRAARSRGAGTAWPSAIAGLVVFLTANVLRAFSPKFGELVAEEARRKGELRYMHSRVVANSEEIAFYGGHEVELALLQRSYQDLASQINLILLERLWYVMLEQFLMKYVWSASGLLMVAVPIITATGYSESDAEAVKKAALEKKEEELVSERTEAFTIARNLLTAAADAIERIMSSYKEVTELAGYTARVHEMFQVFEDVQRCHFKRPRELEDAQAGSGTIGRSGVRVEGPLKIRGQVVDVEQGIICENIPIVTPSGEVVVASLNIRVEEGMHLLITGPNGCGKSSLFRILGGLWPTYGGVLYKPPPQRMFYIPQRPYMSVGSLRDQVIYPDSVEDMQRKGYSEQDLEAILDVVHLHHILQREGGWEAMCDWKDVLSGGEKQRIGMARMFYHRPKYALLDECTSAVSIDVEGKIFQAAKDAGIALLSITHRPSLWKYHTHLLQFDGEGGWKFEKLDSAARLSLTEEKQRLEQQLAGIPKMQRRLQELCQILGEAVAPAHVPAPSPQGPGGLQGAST

chABCD1 (chimeric ABCD1) [2] = biological target: T2, chABCD1 (chimeric ABCD1) (Homo sapiens, UniProt P33897, K336A); settings: 5 μM C22:0-CoA, 2 mM ATP, 2 mM MgCl2, LMNG + CHS, pH 7.5, 37 °C
T2 construct: single polypeptide: N-terminal FLAG tag, PMP-4 residues 1-65 replacing human ABCD1 residues 1-63, then human ABCD1 64-745; HEK293F; homodimer; LMNG/CHS for assays, digitonin for cryo-EM; with PMP-4 (peroxisomal membrane protein related, ABCD1 homolog, Caenorhabditis elegans; N-terminal segment fused to the target chain)
T2 sequence (P33897 64-745 K336A): T1 sequence (P33897 64-745 R104A) with A41R, K273A

chABCD1 (chimeric ABCD1) [3] = biological target: T3, chABCD1 (chimeric ABCD1) (Homo sapiens, UniProt P33897, T693M); settings: 2 mM ATP, 2 mM MgCl2, LMNG + CHS, pH 7.5, 37 °C, varying C22:0-CoA
T3 construct: single polypeptide: N-terminal FLAG tag, PMP-4 residues 1-65 replacing human ABCD1 residues 1-63, then human ABCD1 64-745; HEK293F; homodimer; LMNG/CHS for assays, digitonin for cryo-EM; with PMP-4 (peroxisomal membrane protein related, ABCD1 homolog, Caenorhabditis elegans; N-terminal segment fused to the target chain)
T3 sequence (P33897 64-745 T693M): T1 sequence (P33897 64-745 R104A) with A41R, T630M

CCCCCCCCCCCCCCCCCCCCCC(=O)SCCNC(=O)CCNC(=O)[C@H](O)C(C)(C)COP(=O)(O)OP(=O)(O)OC[C@H]1O[C@@H](n2cnc3c(N)ncnc32)[C@H](O)[C@@H]1OP(=O)(O)O [C22:0-CoA]
relative ATPase activity (chABCD1 (chimeric ABCD1) [1]): displayed significantly decreased substrate-simulated ATPase activity, compared to the wild-type
relative ATPase activity (chABCD1 (chimeric ABCD1) [2]): displayed significantly decreased substrate-simulated ATPase activity, compared to the wild-type
ATPase activity (chABCD1 (chimeric ABCD1) [3]): ATPase activity assays of T693M mutant, which showed an almost non-detectable activity
